Measurements taken from ChEMBL document CHEMBL1143995, “Virtual screening approaches for the identification of non-lipid autotaxin inhibitors” (Bioorg Med Chem, 2008).

Molecular target: Autotaxin (Homo sapiens) (UniProt Q13822)
Settings: MDA-MB-435, at 10 µM
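Note: activity read as cleavage of a fluorescent lysophosphatidylcholine analog by autotaxin expressed in the cells.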

Description: Inhibition of human autotaxin expressed in MDA-MB-435 cells assessed as fluorescent lysophosphatidyl choline analog hydrolysis at 10 uM

Row | SMILES | inhibition
1 | CC(C)(C)c1ccc(C(=O)NC(=S)N2CCCC2)cc1 | 76%
2 | Cc1cc(=O)oc2cc(OCC(=O)NC(CC(=O)O)C(=O)O)ccc12 (stereo not given) | 85%
3 | CCCCCCCOC(=O)c1ccc(N2C(=O)c3ccc(C(=O)c4ccc5c(c4)C(=O)N(c4ccc(C(=O)OCCCCCCC)cc4)C5=O)cc3C2=O)cc1 | 58%
4 | Cc1ccnc(N2C(=O)c3ccc(C(=O)c4ccc5c(c4)C(=O)N(c4cc(C)ccn4)C5=O)cc3C2=O)c1 | 91%
5 | CC(C)C(=O)NC(=S)Nc1ccc(N2CCOCC2)cc1 | 80%
6 | CCn1cc(C(=O)O)c(=O)c2cc(F)c(N3CCN(C(=S)NC4CC5CCC4C5)CC3)cc21 (stereo not given) | 83%
7 | CCn1cc(C(=O)O)c(=O)c2cnc(N3CCN(C(=S)NC(=O)c4c(-c5ccccc5)noc4C)CC3)nc21 | 78%
8 | CC(=O)OCCN1C(=O)c2ccc(C(=O)c3ccc4c(c3)C(=O)N(CCOC(C)=O)C4=O)cc2C1=O | 91%
9 | CCn1c(SCC(=O)Nc2ccc(C(C)=O)cc2)nc2nc3c(cc2c1=O)CCCC3 | 21%
10 | O=C(NC1c2ccccc2Oc2ccccc21)c1ccc(C(=O)NC2c3ccccc3Oc3ccccc32)cc1 | 91%
11 | O=C(NN1C(=O)c2ccc(C(=O)c3ccc4c(c3)C(=O)N(NC(=O)c3ccncc3)C4=O)cc2C1=O)c1ccncc1 | 31%
12 | CC(=O)Oc1ccc(N2C(=O)c3ccc(C(=O)c4ccc5c(c4)C(=O)N(c4ccc(OC(C)=O)cc4C(=O)O)C5=O)cc3C2=O)c(C(=O)O)c1 | 53%
13 | CCn1cc(C(=O)O)c(=O)c2cnc(N3CCN(C(=S)NC(CC(=O)OC)C(=O)OC)CC3)nc21 (stereo not given) | 62%
14 | O=C(O)c1cn(C2CC2)c2cc(N3CCN(C(=S)Nc4ccc5c(c4)OCCO5)CC3)c(F)cc2c1=O | 91%
15 | Cc1ccc(N2C(=O)c3ccc(C(=O)c4ccc5c(c4)C(=O)N(c4ccc(C)cc4C(=O)O)C5=O)cc3C2=O)c(C(=O)O)c1 | 70%
16 | O=C(O)c1cc(C(=O)O)cc(N2C(=O)c3ccc(C(=O)c4ccc5c(c4)C(=O)N(c4cc(C(=O)O)cc(C(=O)O)c4)C5=O)cc3C2=O)c1 | 49%
17 | CC(=O)OCCCN1C(=O)c2ccc(C(=O)c3ccc4c(c3)C(=O)N(CCCOC(C)=O)C4=O)cc2C1=O | 58%
18 | Cc1ccc(NC(=S)NC(=O)C2CCCC2)cc1C | 90%
19 | CCCCOC(=O)c1ccccc1N1C(=O)c2ccc(C(=O)c3ccc4c(c3)C(=O)N(c3ccccc3C(=O)OCCCC)C4=O)cc2C1=O | 87%
20 | CCS(=O)(=O)N1N=C(c2ccc(NS(C)(=O)=O)cc2)CC1c1ccc(OC)cc1 (stereo not given) | 89%
21 | Cc1ccc(/N=N/c2cc(C)ccc2NC(=O)c2ccc(Oc3ccc(C(=O)Nc4ccc(C)cc4/N=N/c4ccc(C)cc4)cc3)cc2)cc1 | 93%
22 | Cc1c(NS(=O)(=O)CC23CCC(CC2=O)C3(C)C)c(=O)n(-c2ccccc2)n1C (stereo not given) | 88%
23 | CCn1cc(C(=O)O)c(=O)c2cnc(N3CCN(C(=S)Nc4cc5oc6ccccc6c5cc4OC)CC3)nc21 | 88%
24 | Oc1ccc(/N=N/c2ccccc2Br)cc1/C=N/c1ccc(I)cc1 | 87%
25 | CCn1cc(C(=O)O)c(=O)c2cnc(N3CCN(C(=S)Nc4cc(Cl)cc(Cl)c4)CC3)nc21 | 0%
26 | O=C(c1ccc2c(c1)C(=O)N(N1C(=O)c3ccccc3C1=O)C2=O)c1ccc2c(c1)C(=O)N(N1C(=O)c3ccccc3C1=O)C2=O | 90%
27 | O=S(=O)(O)c1cc(O)c2c(/N=N/c3c(S(=O)(=O)O)cc4cc(S(=O)(=O)O)cc(O)c4c3O)cc(S(=O)(=O)O)cc2c1 | 85%
28 | O=C(/C=C/c1cccs1)NC(=S)N1CCCCCC1 | 88%
29 | COCC(=O)N1N=C(c2cccc(NS(C)(=O)=O)c2)CC1c1cccc([N+](=O)[O-])c1 (stereo not given) | 85%

Now from value to molecule:

Row | inhibition | SMILES
30 | 71% | O=C(O)c1ccc2c(c1)C(=O)N(c1ccc(C(=O)OCC(=O)c3ccccc3)cc1)C2=O
31 | 81% | Cc1ccc(/N=N/c2cc(C)ccc2NC(=O)c2ccc3c(c2)C(=O)N(N2C(=O)c4ccccc4C2=O)C3=O)cc1
32 | 74% | O=C(Cc1ccccc1)Nc1cccc(N2C(=O)c3ccc(C(=O)O)cc3C2=O)c1
33 | 79% | Cc1ccccc1NC(=O)c1cccc(N2C(=O)c3ccc(C(=O)O)cc3C2=O)c1
34 | 56% | O=C(O)c1cccc(NC(=O)c2ccc3c(c2)C(=O)N(Cc2cccnc2)C3=O)c1
35 | 65% | COC(=O)c1ccc(N2C(=O)c3ccc(C(=O)c4ccc5c(c4)C(=O)N(c4ccc(C(=O)OC)cc4)C5=O)cc3C2=O)cc1
36 | 79% | O=C(O)c1cccc(NC(=O)c2ccc3c(c2)C(=O)N(c2ccccc2)C3=O)c1
37 | 59% | O=C(c1ccc2c(c1)C(=O)N(c1cccc3ccccc13)C2=O)c1ccc2c(c1)C(=O)N(c1cccc3ccccc13)C2=O
38 | 55% | O=C(O)c1cccc(NC(=O)c2ccc3c(c2)C(=O)N(C2CCCCC2)C3=O)c1
39 | 89% | O=C(O)c1ccc2c(c1)C(=O)N(c1cccc(N3C(=O)c4ccc(C(=O)O)cc4C3=O)n1)C2=O
40 | 67% | O=C(c1ccc2c(c1)C(=O)N(Cc1ccccc1)C2=O)c1ccc2c(c1)C(=O)N(Cc1ccccc1)C2=O
41 | 90% | O=C(/C=C/c1cccc(N2C(=O)c3ccc(C(=O)c4cccc([N+](=O)[O-])c4)cc3C2=O)c1)c1ccccc1
42 | 91% | O=C(c1ccc2c(c1)C(=O)N(c1ccccc1-c1ccccc1)C2=O)c1ccc2c(c1)C(=O)N(c1ccccc1-c1ccccc1)C2=O
43 | 48% | O=C(O)c1ccc2c(c1)C(=O)N(c1cccc(C(=O)Nc3cccc(Cl)c3)c1)C2=O
44 | 87% | O=C(O)c1ccc2c(c1)C(=O)N(c1ccc(-c3nnc(-c4ccccc4)o3)cc1)C2=O
45 | 71% | O=C(O)c1ccc2c(c1)C(=O)N(c1cccc(-c3nc4ccccc4c(=O)o3)c1)C2=O
46 | 67% | Cc1c(N2C(=O)c3ccc(C(=O)c4ccc5c(c4)C(=O)N(c4c(C)n(C)n(-c6ccccc6)c4=O)C5=O)cc3C2=O)c(=O)n(-c2ccccc2)n1C
47 | 74% | O=C(Cc1ccccc1)Nc1cc(N2C(=O)c3ccc(C(=O)O)cc3C2=O)ccc1Cl
48 | 46% | O=C(O)c1ccc(CN2C(=O)c3ccc(C(=O)c4ccc5c(c4)C(=O)N(Cc4ccc(C(=O)O)cc4)C5=O)cc3C2=O)cc1
49 | 89% | CCCCN1C(=O)c2ccc(C(=O)Nc3cc(C(=O)O)cc(C(=O)O)c3)cc2C1=O
50 | 31% | O=C(O)c1ccc(Oc2ccc(C(=O)c3ccc4c(c3)C(=O)N(c3cccc5ccccc35)C4=O)cc2)cc1

Row | inhibition | SMILES
51 | 91% | Cc1cc(=O)oc2c(/C=N/c3ccc(/N=N/c4ccccc4)cc3)c(O)ccc12
52 | 59% | CC(=O)Nc1ccc(N2C(=O)c3ccc(C(=O)c4ccc5c(c4)C(=O)N(c4ccc(NC(C)=O)cc4)C5=O)cc3C2=O)cc1
53 | 82% | O=C(O)c1ccc2c(c1)C(=O)N(c1ccc(/N=N/c3ccccc3)cc1)C2=O
54 | 71% | O=C(O)c1cc(NC(=O)c2ccc3c(c2)C(=O)N(CC2CCCO2)C3=O)cc(C(=O)O)c1 (stereo not given)
55 | 93% | O=C(c1ccc2c(c1)C(=O)N(c1ccc(Br)cc1)C2=O)c1ccc2c(c1)C(=O)N(c1ccc(Br)cc1)C2=O
56 | 90% | O=C(O)c1ccc(Oc2ccc(C(=O)c3ccc4c(c3)C(=O)N(c3ccc([N+](=O)[O-])cc3)C4=O)cc2)cc1
57 | 45% | O=C(O)c1cccc(NC(=O)c2ccc3c(c2)C(=O)N(c2ccc(/N=N/c4ccccc4)cc2)C3=O)c1
58 | 58% | COc1ccc(N2C(=O)c3ccc(C(=O)Nc4cccc(C(=O)O)c4)cc3C2=O)cc1
59 | 67% | O=C(Nc1ccc(O)c(C(=O)O)c1)c1ccc2c(c1)C(=O)N(CC1CCCO1)C2=O (stereo not given)
60 | 71% | O=C(O)c1ccc(Oc2ccc(C(=O)c3ccc4c(c3)C(=O)N(c3ccccc3C(=O)O)C4=O)cc2)cc1
61 | 86% | Oc1cccc(/C=N/c2ccc(/N=N/c3ccccc3)cc2)c1O
62 | 86% | O=C(O)c1cc(NC(=O)c2ccc3c(c2)C(=O)N(Cc2cccnc2)C3=O)cc(C(=O)O)c1
63 | 71% | CC(=O)Nc1ccc(/N=N/c2c(S(=O)(=O)O)cc3cc(NC(=O)Nc4ccc5c(O)c(/N=N/c6ccccc6)c(S(=O)(=O)O)cc5c4)ccc3c2O)cc1
64 | 80% | CC(=O)Oc1cccc(N2C(=O)c3ccc(C(=O)c4ccc5c(c4)C(=O)N(c4cccc(OC(C)=O)c4)C5=O)cc3C2=O)c1
65 | 86% | O=C(O)c1ccc2c(c1)C(=O)N(c1ccc(Cl)c(NC(=O)c3ccc4ccccc4c3O)c1)C2=O
66 | 62% | O=C(O)c1ccc(Oc2ccc(C(=O)c3ccc4c(c3)C(=O)N(c3ccc(O)cc3)C4=O)cc2)cc1
67 | 71% | O=C(O)c1cccc(NC(=O)c2ccc3c(c2)C(=O)N(c2nccs2)C3=O)c1
68 | 83% | Cc1ccc(C(=O)O)cc1N1C(=O)c2ccc(C(=O)c3ccc4c(c3)C(=O)N(c3cc(C(=O)O)ccc3C)C4=O)cc2C1=O
69 | 70% | O=C(O)c1ccc2c(c1)C(=O)N(c1ccc(Oc3ccc([N+](=O)[O-])cc3)cc1)C2=O
70 | 86% | CCOc1ccccc1N1C(=O)c2ccc(C(=O)c3ccc4c(c3)C(=O)N(c3ccccc3OCC)C4=O)cc2C1=O
